Our source for the IC50 and inhibition values is ChEMBL document CHEMBL4715767, “Pterin-7-carboxamides as a new class of aldose reductase inhibitors” (Bioorg Med Chem Lett, 2016).

Usually IC50 stands for the midpoint of a concentration-inhibition curve. As a reminder, the inhibition is the drop in the measured response relative to a control, in per cent.

In experiment [1] the target is T1, Aldo-keto reductase family 1 member B1 (Homo sapiens, UniProt P15121). As to the kind of experiment: Inhibition of recombinant human ALR2 using D,L-glyceraldehyde and NADPH as substrate preincubated for 3 mins followed by substrate addition and measured for 3 mins by spectrophotometric analysis.
The target of experiment [2] is T1, Aldo-keto reductase family 1 member B1. Put plainly: Inhibition of recombinant human ALR2 at 10.5 mM using D,L-glyceraldehyde and NADPH as substrate preincubated for 3 mins followed by substrate addition and measured for 3 mins by spectrophotometric analysis relative to control. As to conditions: time 6.0 min.

For `Nc1nc2nc(C(=O)NCCCC(=O)O)cnc2c(=O)[nH]1`, in experiment [1] (read-out: IC50), the IC50 was determined as 25.5 µM.

`Nc1nc2nc(C(=O)NCC(=O)N[C@@H](Cc3ccccc3)C(=O)O)cnc2c(=O)[nH]1`: the inhibition in experiment [2] was 9%. For `Nc1nc2nc(C(=O)N[C@@H](Cc3ccc(O)cc3)C(=O)O)cnc2c(=O)[nH]1`, the IC50 in experiment [1] (read-out: IC50) is 216 µM. On the same count and under the same terms, next, `Nc1nc2nc(C(=O)N[C@H](Cc3ccc(O)cc3)C(=O)O)cnc2c(=O)[nH]1`: 580 µM. Still for that read-out and setting: the value for `CC[C@H](C)[C@H](NC(=O)c1cnc2c(=O)[nH]c(N)nc2n1)C(=O)O` was 69 µM; that for `Nc1nc2nc(C(=O)O)cnc2c(=O)[nH]1` was 26.5 µM.

Turning to `C[C@H](NC(=O)c1cnc2c(=O)[nH]c(N)nc2n1)C(=O)O`, the IC50 in experiment [1] (read-out: IC50) came out at 12.4 µM. On the same count and under the same terms, the value for `Nc1nc2nc(C(=O)N[C@@H](C(=O)O)c3ccccc3)cnc2c(=O)[nH]1` was 56.6 µM. Same read-out and setting: next, `Nc1nc2nc(C(=O)NCCC(=O)O)cnc2c(=O)[nH]1`: 17.5 µM.

On to `Nc1nc2ncc(C(=O)O)nc2c(=O)[nH]1` [PTERIN-6-CARBOXYLIC ACID], for which the IC50 result in experiment [1] is listed as “Nd(Insoluble)”. Regarding `CC(C)C[C@H](NC(=O)c1cnc2c(=O)[nH]c(N)nc2n1)C(=O)O`, the IC50 in experiment [1] (read-out: IC50) came to 61.7 µM. Take `Nc1nc2nc(C(=O)N[C@@H](Cc3ccccc3)C(=O)O)cnc2c(=O)[nH]1`: the IC50 in experiment [1] (read-out: IC50) came to 46 µM. Still for that read-out and setting: the value for `CC(C)[C@@H](NC(=O)c1cnc2c(=O)[nH]c(N)nc2n1)C(=O)O` was 194 µM. The same measure, in the same setting: the value for `C[C@@H](NC(=O)c1cnc2c(=O)[nH]c(N)nc2n1)C(=O)O` was 72 µM.

Regarding `Nc1nc2nc(C(=O)N[C@H](CCc3ccccc3)C(=O)O)cnc2c(=O)[nH]1`, the IC50 in experiment [1] (read-out: IC50) came to 42.1 µM. The same measure, in the same setting: next, `Nc1nc2nc(C(=O)N[C@H](CO)C(=O)O)cnc2c(=O)[nH]1`: 130 µM; `Nc1nc2nc(C(=O)N[C@@H](CCc3ccccc3)C(=O)O)cnc2c(=O)[nH]1`: 25.1 µM. Still for that read-out and setting: next, `Nc1nc2nc(C(=O)N[C@H](Cc3ccccc3)C(=O)O)cnc2c(=O)[nH]1`: 68.1 µM; `Nc1nc2nc(C(=O)NCC(=O)O)cnc2c(=O)[nH]1`: 1.97 µM.

Consider `CC(C)C[C@@H](NC(=O)c1cnc2c(=O)[nH]c(N)nc2n1)C(=O)O`, for which the IC50 in experiment [1] (read-out: IC50) was found to be 97.2 µM. Same read-out and setting: the value for `Nc1nc2nc(C(=O)N[C@@H](CO)C(=O)O)cnc2c(=O)[nH]1` was 29.2 µM; that for `Nc1nc2nc(C(=O)N[C@H](C(=O)O)c3ccccc3)cnc2c(=O)[nH]1` was 42.6 µM. Same read-out and setting: the value for `Nc1nc2nc(C(=O)NCCCCCC(=O)O)cnc2c(=O)[nH]1` was 4.02 µM. Regarding `Nc1nc2ncc(CNc3ccc(C(=O)N[C@@H](CCC(=O)O)C(=O)O)cc3)nc2c(=O)[nH]1` [FOLIC ACID], the IC50 in experiment [1] (read-out: IC50) turned out to be 52.5 µM.

On to `CC[C@@H](C)[C@@H](NC(=O)c1cnc2c(=O)[nH]c(N)nc2n1)C(=O)O`, for which the IC50 in experiment [1] (read-out: IC50) worked out at 278 µM.

Consider `Nc1nc2nc(C(=O)NCCCCC(=O)O)cnc2c(=O)[nH]1`, for which the IC50 in experiment [1] (read-out: IC50) came to 11.7 µM. On the same count and under the same terms, next, `CC(C)[C@H](NC(=O)c1cnc2c(=O)[nH]c(N)nc2n1)C(=O)O`: 83.4 µM.
